Data published in the supplement of paper PMC10307832.

Key:
Assay in all cases: relative viability (nuclei count vs DMSO), 5 days (fraction); higher = more cells survive
Dactolisib + Decitabine = compound: Cn1c(=O)n(-c2ccc(C(C)(C)C#N)cc2)c2c3cc(-c4cnc5ccccc5c4)ccc3ncc21 [Dactolisib] + Nc1ncn([C@H]2C[C@H](O)[C@@H](CO)O2)c(=O)n1 [Decitabine] (partner 2 µM)
How it was run: (§1)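 Relative viability is defined as nuclei in treated wells over nuclei in vehicle wells. Duplicate plates were run and medians reported. Lung cancer cell lines in 1536-well plates were dosed by pin tool one day after seeding, with one drug or with a fixed anchor-drug dose plus five library-drug doses (not always all listed) in √10 steps, and nuclei were counted after 5 days.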

AZ505 + Vorinostat = compound: C1CCC(CC1)N(CCNCCC2=C3C(=C(C=C2)O)NC(=O)CO3)C(=O)CCNCCC4=CC(=C(C=C4)Cl)Cl [AZ505] + O=C(CCCCCCC(=O)Nc1ccccc1)NO [Vorinostat] (partner 1 µM)
How it was run: as §1

Dactolisib + Dasatinib = compound: Cn1c(=O)n(-c2ccc(C(C)(C)C#N)cc2)c2c3cc(-c4cnc5ccccc5c4)ccc3ncc21 [Dactolisib] + Cc1nc(Nc2ncc(C(=O)Nc3c(C)cccc3Cl)s2)cc(N2CCN(CCO)CC2)n1 [Dasatinib] (partner 0.075 µM)
How it was run: as §1

Dactolisib + Vorinostat = compound: Cn1c(=O)n(-c2ccc(C(C)(C)C#N)cc2)c2c3cc(-c4cnc5ccccc5c4)ccc3ncc21 [Dactolisib] + O=C(CCCCCCC(=O)Nc1ccccc1)NO [Vorinostat] (partner 1 µM)
How it was run: as §1

Cell Line | relative viability (Dactolisib + Decitabine; first compound 0.002 µM) | relative viability (Dactolisib + Decitabine; first compound 0.006325 µM) | relative viability (Dactolisib + Decitabine; first compound 0.02 µM) | relative viability (Dactolisib + Decitabine; first compound 0.06325 µM) | relative viability (Dactolisib + Decitabine; first compound 0.2 µM) | relative viability (AZ505 + Vorinostat; first compound 0.08 µM) | relative viability (AZ505 + Vorinostat; first compound 0.253 µM) | relative viability (AZ505 + Vorinostat; first compound 0.8 µM) | relative viability (AZ505 + Vorinostat; first compound 2.53 µM) | relative viability (AZ505 + Vorinostat; first compound 8 µM) | relative viability (Dactolisib + Dasatinib; first compound 0.002 µM) | relative viability (Dactolisib + Dasatinib; first compound 0.006325 µM) | relative viability (Dactolisib + Dasatinib; first compound 0.02 µM) | relative viability (Dactolisib + Dasatinib; first compound 0.06325 µM) | relative viability (Dactolisib + Dasatinib; first compound 0.2 µM) | relative viability (Dactolisib + Vorinostat; first compound 0.002 µM) | relative viability (Dactolisib + Vorinostat; first compound 0.006325 µM) | relative viability (Dactolisib + Vorinostat; first compound 0.02 µM) | relative viability (Dactolisib + Vorinostat; first compound 0.06325 µM) | relative viability (Dactolisib + Vorinostat; first compound 0.2 µM)
LC-2-ad | 0.888 | 0.871 | 0.727 | 0.784 | 0.73 | 0.657 | 0.712 | 0.689 | 0.708 | 0.772 | 0.495 | 0.486 | 0.491 | 0.349 | 0.297 | 0.857 | 0.699 | 0.749 | 0.524 | 0.496
COR-L 105 | 0.578 | 0.629 | 0.598 | 0.395 | 0.326 | 0.778 | 0.87 | 0.86 | 0.902 | 0.89 | 0.294 | 0.293 | 0.309 | 0.2 | 0.202 | 0.677 | 0.88 | 0.828 | 0.402 | 0.394
NCI-H1355 | 0.382 | 0.35 | 0.338 | 0.267 | 0.253 | 0.53 | 0.59 | 0.585 | 0.624 | 0.62 | 0.806 | 0.743 | 0.689 | 0.409 | 0.218 | 0.693 | 0.608 | 0.558 | 0.408 | 0.295
H3255 | 0.671 | 0.614 | 0.559 | 0.511 | 0.415 | – | 0.799 | 0.796 | 0.84 | 0.923 | 0.489 | 0.387 | 0.357 | 0.397 | 0.28 | 0.936 | 0.783 | 0.706 | 0.811 | 0.594
NCI-H1993 | 0.722 | 0.503 | 0.511 | 0.389 | 0.46 | 0.689 | 0.741 | 0.994 | 0.884 | 0.977 | 0.553 | 0.413 | 0.498 | 0.505 | 0.52 | 0.849 | 0.54 | 0.537 | 0.481 | 0.284
NCI-H1734 | 0.542 | 0.491 | 0.478 | 0.341 | 0.259 | 0.751 | 0.842 | 0.731 | 0.832 | 0.773 | 0.499 | 0.362 | 0.407 | 0.2 | 0.162 | 0.612 | 0.705 | 0.632 | 0.325 | 0.258
HOP-62 | 0.287 | 0.238 | 0.215 | 0.275 | 0.22 | 0.607 | 0.605 | 0.658 | 0.628 | 0.732 | 0.637 | 0.578 | 0.625 | 0.349 | 0.277 | 0.572 | 0.541 | 0.543 | 0.177 | 0.219
LOU-NH91 | 0.772 | 0.791 | 0.795 | 0.623 | 0.565 | 0.837 | 0.855 | 0.91 | 0.856 | 0.908 | 0.533 | 0.591 | 0.504 | 0.438 | 0.351 | 0.903 | 0.898 | 0.784 | 0.524 | 0.529
